The target in one experiment is T1, recombinant human HDAC1 (Homo sapiens, UniProt Q13547).
T1 construct: FLAG (C); made in house; host or cells: Hi5 insect cells
In words: In vitro enzyme assay of recombinant HDAC1 (Fluor de Lys deacetylase assay). It counts as biochemical. Particulars: recombinant human HDAC1 produced in Hi5 insect cells; acetylated histone H4 peptide substrate; read-out: Test (a) IC50. As to the method: (a) In Vitro Enzyme Assay of Recombinant HDAC1
HDAC inhibitors were screened against recombinant human HDAC1 produced in Hi5 insect cells. The enzyme was cloned with a FLAG tag at the C-terminal of the gene and affinity purified using Anti-FLAG M2 agarose from SIGMA (A2220).
The deacetylase assays were carried out in a 50 μl reaction. […] The reaction was stopped by addition of an equal volume (50 μl) Fluor de Lys developer (Biomol) containing Trichostatin A at 2 μM. […] IC50 values for HDAC enzyme inhibitors were determined by performing dose response curves with individual compounds and determining the concentration of inhibitor producing fifty percent decrease in the maximal signal (diluent control).

For the next experiment, the system named is HCT116 cells. Description: In vitro assay of inhibition of proliferation in whole cells (Promega MTS assay). It is filed as cell-based. Particulars: Homo sapiens, HCT-116, 72 hours treatment, read-out: Test (b) IC50. As to the method:
(b) In Vitro Assay of Inhibition of Proliferation in Whole Cells
Inhibition of proliferation in whole cells was assayed using the Promega cell titer 96 aqueous proliferation assay (Promega #G5421). HCT116 cells were seeded in 96 well plates at 1×10^3 cells/well, and allowed to adhere overnight. They were treated with inhibitors for 72 hours. 20 μl of the tetrazolium dye MTS was added to each well and the plates were reincubated for 3 hours. Absorbance was then measured on a 96 well plate reader at […]. The IC50 values for HDAC inhibitors were determined by performing dose response curves with individual compounds and determining the concentration of inhibitor producing fifty percent decrease in maximal signal (diluent control).
(Formazan colour is commonly taken as a measure of viable cells.)

This passage reports IC50 results from patent publication US20080119451A1, “Novel Benzamide Derivatives” (ASTRAZENECA AB, priority 2005, published 2008).

T1 sequence (Q13547 whole entry): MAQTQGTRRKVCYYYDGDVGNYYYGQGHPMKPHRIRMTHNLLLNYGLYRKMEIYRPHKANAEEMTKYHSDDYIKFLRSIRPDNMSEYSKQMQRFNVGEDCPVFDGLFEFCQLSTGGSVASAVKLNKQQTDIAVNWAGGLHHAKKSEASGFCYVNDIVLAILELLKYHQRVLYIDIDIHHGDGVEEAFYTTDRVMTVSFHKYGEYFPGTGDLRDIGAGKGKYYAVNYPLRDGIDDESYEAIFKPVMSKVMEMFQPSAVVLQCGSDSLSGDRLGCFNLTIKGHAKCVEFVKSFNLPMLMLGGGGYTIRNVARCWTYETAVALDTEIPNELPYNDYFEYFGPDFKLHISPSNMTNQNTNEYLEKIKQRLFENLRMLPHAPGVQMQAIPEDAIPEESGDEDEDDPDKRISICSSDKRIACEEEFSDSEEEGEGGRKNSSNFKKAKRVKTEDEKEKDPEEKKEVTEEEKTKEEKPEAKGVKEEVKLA

As usually defined, the IC50 is the concentration at which inhibition is half-maximal. Turning to `Cc1cc(CN2CCN(C(C)C)CC2)cnc1-c1ccc(C(=O)Nc2ccccc2N)cc1` [Example 2, N-(2-aminophenyl)-4-{5-[(4-isopropylpiperazin-1-yl)methyl]-3-methylpyridin-2-yl}benzamide], the results for the IC50 at recombinant human HDAC1 and in the experiment on HCT116 cells were 19 nM and 238 nM, respectively.

Consider `Nc1ccccc1NC(=O)c1ccc(-c2ccccn2)cc1` [Comparator, N-(2-aminophenyl)-4-pyridin-2-ylbenzamide, reference compound], for which the figures for the IC50 on recombinant human HDAC1 and with HCT116 cells were 89 nM and 2330 nM, respectively.

In the case of `Cc1cc(CN2CCC2)cnc1-c1ccc(C(=O)Nc2ccccc2N)cc1` [Example 4, N-(2-aminophenyl)-4-[5-(azetidin-1-ylmethyl)-3-methylpyridin-2-yl]benzamide], the figures for the IC50 on recombinant human HDAC1 and in the experiment on HCT116 cells were 21 nM and 310 nM, respectively.
